Patent US20230003721A1, “MITOTHERAPEUTICS FOR THE TREATMENT OF BRAIN DISORDERS” (The University of Florida Research Foundation, Inc., priority 2019, published 2023)
Counter-ions that a name gives are not always drawn. Like-named read-outs stand apart in the source and are kept apart here.

Legend:
[1] = test system: primary forebrain neurons; assay: cells; settings: for EC50: Mus musculus, Neuron; for confirmation in the re-screen: 10 replicate plates
Protocol: Primary forebrain cell culture and maintenance. Forebrains of P0 Mt or Mt/Ai14 pups without olfactory bulbs and meninges were collected and placed in ice cold Ca^2+ and Mg^2+ free HBSS supplemented with 2 μg/ml gentamicin, 25 mM D-glucose, 1 mM pyruvate and 20 mM HEPES. Brain tissue was digested with 0.6 mg/ml papain at 37° C. for 20 min. Forebrains were washed with plating media [Neurobasal (Gibco), 5% FBS, 4 mM GlutaMAX (Gibco), 2 μg/ml gentamicin]. The tissue was gently triturated, allowed to settle and the supernatant was filtered through a 40 μm mesh-sized cell strainer. Cells were centrifuged at 420×g for 4 min and resuspended in plating media. 15,000 cells per well were plated with 2×10^8 viral particles/ml onto black Greiner μClear (Cat #781946) or Ultra-Low Base Aurora with evaporation barrier (Cat #ABE201201B) 384-well plates (80 μl/well) pre-coated with poly-D-lysine for the primary screen and rescreen, respectively. Plating and media changes were performed using an automated Biomek FX^P liquid handling workstation. Four hr after plating, 75% of the plating media was replaced by feeding media [Neurobasal-A (Gibco), 4 mM GlutaMAX (Gibco), 2 μg/ml gentamicin, 2% B27 (Gibco)]. At DIV4, 50% of the media was exchanged with fresh feeding media supplemented with 16 μM 5-Fluoro-2′-deoxyuridine (FUdR) to prevent glial cell over-growth. At DIV8 and DIV12, additional 50% media changes were made without FUdR. Cells were maintained at 37° C. and 5% CO2; plates were topped with Breathe-Easy adhesive membranes (Greiner plates) to minimize evaporation.
Compounds and compound transfer.
Imaging. Images were captured using a GE Incell 6000 system (60× objective, 0.95 NA, 16-bit images) equipped with environmental control (37° C., 5% CO2). Mt-GFP (green channel) was imaged by confocal imaging (3 slices, Δz=0.7 μm, aperture=1.0 AU, λexc=488 nm, λem=515-535 nm). Cyto-tdTomato (red channel) and MitoTracker Orange (red channel) were imaged using confocal mode (3 slices, Δz=0.7 μm, aperture=1.0 AU, λexc=561 nm, λem=569-641 nm, MitoTracker Orange) or with widefield mode (Cyto-tdTomato). TMRM imaged for the co-localization experiments with Mt-GFP was imaged using the confocal mode (3 slices, […] aperture=1.0, λexc=488, λem=569-641 nm). For the live-dead assay, primary neurons were imaged with a 20× (widefield mode, NA 0.45) objective using λexc=561 nm and λem=569-641 nm for the propidium iodide stained dead cells (red channel), and λexc=488 nm and λem=515-535 nm for the fluorescein diacetate stained live cells (green channel). 10 fields were collected from each well, and 4 wells were imaged/condition in the live-dead assay. For all other experiments, 4 fields/well were imaged unless otherwise stated.
Automated data analysis pipeline. Most experiments utilized only Mt-GFP; some utilized both Mt-GFP and Cyto-tdTomato. The Z-projected images were preprocessed using a custom Fiji macro. For preprocessing of Mt-GFP images: background was subtracted (rolling ball, radius=3), images were median filtered (radius=1) and somatic mitochondria were removed. For removal of the somatic mitochondria, they were first segmented and then a somatic mitochondrial mask overlaid on the image.

[2] = test system: primary neurons; assay: CellTiter-Glo luminescence-based ATP assay; assay type: cell-based, mouse; settings: ATP orthogonal screen, 24 h
Method in brief: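 Primary neurons treated from DIV13 for 24 h with compound or DMSO. After part of the medium was removed, CellTiter-Glo reagent was added; plates were shaken 10 min at 200 rpm, kept 2 min in the dark at room temperature, and luminescence read as total ATP.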

[3] = test system: primary neurons; assay: TMRM fluorescence assay of inner mitochondrial membrane potential (ΔΨm); settings: for TMRM Primary: primary screen; for TMRM Primary / hit in TMRM primary screen when assayed at 4 h: 12.5 μM; for TMRM Primary / TMRM Rescreen: 24 h
[4] = rescreen, 12.5 μM, 24 h, vs DMSO wells

Compound: Nc1nnc(-c2cccc(Cl)c2Cl)c(N)n1 [LAMOTRIGINE]
- Dendritic Mt CA [1, 4]: 4.75 robust Z-scores
- Neurite Area [1, 4]: 1.00 robust Z-scores

Compound: CC(C)CCC[C@@H](C)[C@H]1CC[C@H]2[C@@H]3CC=C4CC(=O)CC[C@]4(C)[C@H]3CC[C@]12C [CHOLEST-5-EN-3-ONE]
- Dendritic Mt CA [1, 4]: 2.78 robust Z-scores
- Neurite Area [1, 4]: −0.65 robust Z-scores

Compound: COc1ccc2c(c1)[C@]13CCCC[C@@H]1[C@H](C2)N(C)CC3 [DEXTROMETHORPHAN HYDROBROMIDE]
- Dendritic Mt CA [1]: 2.38 robust Z-scores
- Neurite Area [1]: 0.21 robust Z-scores

Compound: COc1ccc2c(c1)[nH]c1c(C)nccc12 [HARMINE]
- EC50 ([1]; 24 h, read-out: Elongation (Dend Mt length) EC50): 1.7 µM
- EC50 ([1]; 24 h, read-out: Health (Ax Mt Circularity) EC50): > 25 µM
- EC50 ([1]; 24 h, read-out: Sprouting (Neurite Area) EC50): > 25 µM
- Dendritic Mt CA [1, 4]: 3.65 robust Z-scores
- Neurite Area [1, 4]: −1.63 robust Z-scores

Compound: CC[C@@]1(O)C(=O)OCc2c1cc1n(c2=O)Cc2cc3cc(O)ccc3nc2-1 [10-HYDROXYCAMPTOTHECIN]
- Dendritic Mt CA [1, 4]: 2.23 robust Z-scores
- Neurite Area [1, 4]: 2.29 robust Z-scores

Compound: CC12CC3CC(C)(C1)CC(N)(C3)C2 [MEMANTINE HYDROCHLORIDE]
- confirmation in the re-screen ([1]; 12.5 μM): weak hits
- Dendritic Mt CA [1, 4]: 3.25 robust Z-scores
- Neurite Area [1, 4]: 1.45 robust Z-scores

Compound: O=C(CCc1ccc(O)cc1)c1c(O)cc(O)cc1O [PHLORETIN]
- Dendritic Mt CA [1, 4]: 2.73 robust Z-scores
- Neurite Area [1, 4]: 1.23 robust Z-scores

Compound: Cc1cccc(C)c1N=C1NCCCS1 [XYLAZINE]
- Dendritic Mt CA [1, 4]: 3.66 robust Z-scores
- Neurite Area [1, 4]: 0.40 robust Z-scores

Compound: Cc1cccc(N(C)C(=S)Oc2ccc3ccccc3c2)c1 [TOLNAFTATE]
- Dendritic Mt CA [1, 4]: 2.93 robust Z-scores
- Neurite Area [1, 4]: 1.01 robust Z-scores

Compound: O=c1c(O)c(-c2ccccc2)oc2cc(O)ccc12 [3,7-DIHYDROXYFLAVONE]
- Dendritic Mt CA [1, 4]: 2.78 robust Z-scores
- Neurite Area [1, 4]: 1.37 robust Z-scores

Compound: CCCCCOC(=O)Nc1nc(=O)n([C@@H]2O[C@H](C)[C@@H](O)[C@H]2O)cc1F [CAPECITABINE]
- Dendritic Mt CA [1, 4]: 2.88 robust Z-scores
- Neurite Area [1, 4]: 0.58 robust Z-scores

Compound: COc1ccc2c(c1O)-c1c(OC)c(OC)cc3c1[C@H](C2)N(C)CC3 [S-ISOCORYDINE (+)]
- Dendritic Mt CA [1, 4]: 2.82 robust Z-scores
- Neurite Area [1, 4]: 0.78 robust Z-scores

Compound: O=c1c(O)c(-c2ccccc2)oc2cccc(O)c12 [3,5-DIHYDROXYFLAVONE]
- Dendritic Mt CA [1, 4]: 3.43 robust Z-scores
- Neurite Area [1, 4]: 1.20 robust Z-scores

Compound: COc1ccc(CN(CCN(C)C)c2ccccn2)cc1 [PYRILAMINE MALEATE]
- Dendritic Mt CA [1, 4]: 2.65 robust Z-scores
- Neurite Area [1, 4]: 0.78 robust Z-scores

Compound: C=C(C)c1cc2cc(C(C)=O)c(O)cc2o1 [EUPARIN]
- Dendritic Mt CA [1, 4]: 4.22 robust Z-scores
- Neurite Area [1, 4]: 1.17 robust Z-scores

Compound: CC[C@H]1CN2CC[C@H]1C[C@@H]2[C@@H](O)c1ccnc2ccc(OC)cc12 [HYDROQUINIDINE]
- Dendritic Mt CA [1, 4]: 2.19 robust Z-scores
- Neurite Area [1, 4]: −0.15 robust Z-scores

Compound: O=C(/C=C/c1ccccc1)c1ccc(O[C@@H]2O[C@H](CO)[C@@H](O)[C@H](O)[C@H]2O)cc1O [2′,4′-DIHYDROXYCHALCONE 4′-GLUCOSIDE]
- Dendritic Mt CA [1, 4]: 4.44 robust Z-scores
- Neurite Area [1, 4]: −0.18 robust Z-scores

Compound: CCCC1O[C@@H]2C[C@H]3[C@@H]4CCC5=CC(=O)C=C[C@]5(C)[C@H]4[C@@H](O)C[C@]3(C)[C@]2(C(=O)CO)O1 (stereo partly drawn) [BUDESONIDE]
- Dendritic Mt CA [1, 4]: 2.16 robust Z-scores
- Neurite Area [1, 4]: −0.61 robust Z-scores

Compound: COc1ccc(/C=C/c2cc(O)cc(O)c2)cc1 [RESVERATROL 4′-METHYL ETHER]
- confirmation in the re-screen ([1]; 12.5 μM): weak hits
- Dendritic Mt CA [1, 4]: 3.68 robust Z-scores
- Neurite Area [1, 4]: 0.02 robust Z-scores

Compound: AVOCATIN A
- Dendritic Mt CA [1, 4]: 4.14 robust Z-scores
- Neurite Area [1, 4]: 3.48 robust Z-scores

Compound: COc1cc(OC)c2c(c1)O[C@H](c1ccc(OC)c(OC)c1)[C@@H](O)C2
- Dendritic Mt CA [1, 4]: 2.44 robust Z-scores
- Neurite Area [1, 4]: 1.87 robust Z-scores

Compound: O=C(CCCN1CCC(O)(c2ccc(Cl)cc2)CC1)c1ccc(F)cc1 [HALOPERIDOL]
- Dendritic Mt CA [1, 4]: 2.99 robust Z-scores
- Neurite Area [1, 4]: −2.37 robust Z-scores

Compound: CCN1CCCC(OC(=O)C(c2ccccc2)c2ccccc2)C1 (stereo not drawn) [piperidolate hydrochloride]
- ATP [2]: 5.72 Z-scores
- TMRM Primary [3]: 3.58 Z-scores
- TMRM Rescreen [3]: 3.76 Z-scores

Compound: COC(=O)C[C@H]1C(C)(C)C(=O)[C@@H]2CC3=C(CC[C@]4(C)C3=CC(=O)O[C@H]4c3ccoc3)[C@@]1(C)C2=O [carapin-8(9)-ene]
- ATP [2]: 4.89 Z-scores
- TMRM Primary [3]: 3.50 Z-scores
- TMRM Rescreen [3]: 3.82 Z-scores

Compound: OCc1c[nH]c2ccccc12 [indole-3-carbinol]
- ATP [2]: 6.52 Z-scores
- TMRM Primary [3]: 3.15 Z-scores
- TMRM Rescreen [3]: 6.27 Z-scores

Compound: O=C1CCc2ccc(OCCCCN3CCN(c4cccc(Cl)c4Cl)CC3)cc2N1 [aripiprazole]
- ATP [2]: 3.66 Z-scores
- TMRM Primary [3]: 2.98 Z-scores
- TMRM Rescreen [3]: 7.76 Z-scores

Compound: CCCCOC(=O)c1ccc(O)cc1 [butyl paraben]
- ATP [2]: 3.84 Z-scores
- TMRM Primary [3]: 3.42 Z-scores
- TMRM Rescreen [3]: 4.18 Z-scores

Compound: CN(C)CCN(Cc1ccc(Cl)cc1)c1ccccn1 [chloropyramine hydrochloride]
- ATP [2]: 3.26 Z-scores
- TMRM Primary [3]: 3.35 Z-scores
- TMRM Rescreen [3]: 5.24 Z-scores

Compound: CN(C/C=C/c1ccccc1)Cc1cccc2ccccc12 [naftifine hydrochloride]
- ATP [2]: 4.65 Z-scores
- TMRM Primary [3]: 3.26 Z-scores
- TMRM Rescreen [3]: 4.64 Z-scores

Compound: butacaine sulfate
- ATP [2]: 6.99 Z-scores
- TMRM Primary [3]: 3.85 Z-scores
- TMRM Rescreen [3]: 5.06 Z-scores

Compound: CN1CCN(CC/C=C2/c3ccccc3Sc3ccc(S(=O)(=O)N(C)C)cc32)CC1 [thiothixene]
- ATP [2]: 3.80 Z-scores
- TMRM Primary [3]: 3.08 Z-scores
- TMRM Rescreen [3]: 3.38 Z-scores

Compound: CC(=O)OCC(=O)[C@H]1CC[C@H]2[C@@H]3CCC4=CC(=O)CC[C@]4(C)[C@H]3CC[C@]12C [desoxycorticosterone acetate]
- ATP [2]: 3.62 Z-scores
- hit in TMRM primary screen when assayed at 4 h [3]: desoxycorticosterone acetate*
- TMRM Primary [3]: 2.81 Z-scores
- TMRM Rescreen [3]: 1.08 Z-scores

Compound: CSc1nc2cc(Cl)c(Oc3cccc(Cl)c3Cl)cc2[nH]1 [triclabendazole]
- ATP [2]: 3.97 Z-scores
- TMRM Primary [3]: 3.30 Z-scores
- TMRM Rescreen [3]: 3.61 Z-scores

Compound: COCCOC(=O)C1=C(C)NC(C)=C(C(=O)OC(C)C)C1c1cccc([N+](=O)[O-])c1 (stereo not drawn) [nimodipine]
- ATP [2]: 6.53 Z-scores
- TMRM Primary [3]: 4.40 Z-scores
- TMRM Rescreen [3]: 3.98 Z-scores

Compound: CCNC1(c2cccs2)CCCCC1=O.Cl (stereo not drawn) [tiletamine hydrochloride]
- ATP [2]: 6.27 Z-scores
- TMRM Primary [3]: 3.31 Z-scores
- TMRM Rescreen [3]: 4.20 Z-scores

Compound: C=CCc1ccc(O)c(OC)c1 [eugenol]
- ATP [2]: 4.39 Z-scores
- hit in TMRM primary screen when assayed at 4 h [3]: eugenol*
- TMRM Primary [3]: 4.17 Z-scores
- TMRM Rescreen [3]: 3.10 Z-scores

Compound: Cc1nc2sccn2c(=O)c1CCN1CCC(=C(c2ccc(F)cc2)c2ccc(F)cc2)CC1 [ritanserin]
- ATP [2]: 4.40 Z-scores
- TMRM Primary [3]: 5.25 Z-scores
- TMRM Rescreen [3]: 5.83 Z-scores
